Results published in patent US20180125835A1, “Dosage and Use of an A2A Antagonist” (H. Lundbeck A/S, priority 2014, published 2018).
Read-outs that look alike come from different tables or passages of the source.

How the values were obtained:
[1] = Safety and tolerability study, single-dose pharmacokinetics (Parts A, B, C); format: in vivo, human; settings: for intra-subject variability (CV %) for AUC0-inf / intra-subject variability (CV %) for Cmax: across the fasting doses; for half-life / Vd/F / Tmax / AUC(0-inf) / Cmax / AUC(0-t): human, oral; for Vd/F: read-out: Vz/F
Protocol: The study was conducted in three parts: Parts A, B, and C.
Parts A and B were single-dose escalations to determine the safety and tolerability in young healthy men, and in elderly men and women, respectively. Three doses (Cohorts A1 to A3) were tested in healthy young men: 1 mg (N=6), 5 mg (N=6), and 10 mg (N=5); placebo (N=8, total of the three cohorts). […] Two doses (Cohorts B1 and B2) were tested in healthy elderly men and women: 5 mg (N=9 men/4 women), 10 mg (N=4 men/4 women); placebo (N=6 men/4 women, total of the three cohorts). […] A washout period of at least 7 days separated each dose administration.

Long Evans rats = test: Locomotor activity in habituated rats; format: in vivo, rat
Excerpt: Sixteen (16) male Long Evans rats were habituated to Med Associates test activity chambers (17″ W×17″ L×12″ H) over three, 90-minute sessions. […] Total distance travelled and rearing counts for the total session were the primary measure.

[2] = both sexes, plasma, 5 mg, Part B, healthy elderly overall, arithmetic mean
[3] = both sexes, plasma, 5 mg, Part C, elderly men and women, Fasting (N = 24)
[4] = both sexes, plasma, 5 mg, Part C, elderly men and women, Fed (N = 12)
[5] = both sexes, plasma, 10 mg, Part B, healthy elderly overall, arithmetic mean
[6] = female, plasma, 5 mg, Part B, healthy elderly women, arithmetic mean
[7] = female, plasma, 10 mg, Part B, healthy elderly women, arithmetic mean
[8] = male, plasma, 1 mg, Part A, healthy young men, 1 mg single dose, mean (CV %)
[9] = male, plasma, 5 mg, Part A, healthy young men, 5 mg single dose, mean (CV %)
[10] = male, plasma, 5 mg, Part B, healthy elderly men, arithmetic mean
[11] = male, plasma, 10 mg, Part A, healthy young men, 10 mg single dose, mean (CV %)
[12] = male, plasma, 10 mg, Part B, healthy elderly men, arithmetic mean

**Q.** Which results are given for `Cc1ccc(C(=O)Nc2nc(-c3ccco3)c(C(=O)C3CCOCC3)s2)cn1` [Compound 504]?
**A.** differences in exposure between men and women ([1]; Part B): no marked differences; CL/F ([1]; Part B, healthy elderly men, 5 mg, arithmetic mean): 0.611 L/h; CL/F ([1]; Part B, healthy elderly men, 10 mg, arithmetic mean): 0.908 L/h; CL/F ([1]; Part B, healthy elderly overall, 5 mg, arithmetic mean): 0.597 L/h; CL/F ([1]; Part B, healthy elderly overall, 10 mg, arithmetic mean): 0.844 L/h; CL/F ([1]; Part B, healthy elderly women, 5 mg, arithmetic mean): 0.556 L/h; CL/F ([1]; Part B, healthy elderly women, 10 mg, arithmetic mean): 0.780 L/h; mean Cmax lower in the fed state than in the fasting state ([1]; Part C, 5 mg): approximately 23%; overall exposure (AUC0-inf and AUC0-t) fed compared to fasting ([1]; Part C, 5 mg): not statistically significantly different; intra-subject variability (CV %) for AUC0-inf ([1]; Part C, men): 27%; intra-subject variability (CV %) for Cmax ([1]; Part C, men): 16%; intra-subject variability (CV %) for AUC0-inf ([1]; Part C, women): 59%; intra-subject variability (CV %) for Cmax ([1]; Part C, women): 23%; time until which plasma concentration plateaued after Cmax ([1]; Parts A and B, post-dose): approximately 5 hours; half-life ([1]; both sexes, in vivo, Parts A and B, 1 to 10 mg, read-out: mean half-life (t1/2) across dose levels): 1140 to 1500 min; Vd/F ([1]; both sexes, plasma, 5 mg, Part B, healthy elderly overall, 5 mg, arithmetic mean): 16.9 L; half-life ([1]; both sexes, plasma, 5 mg, Part B, healthy elderly overall, 5 mg, arithmetic mean, read-out: t1/2 (converted)): 1320 min; Tmax ([1]; both sexes, plasma, 5 mg, Part B, healthy elderly overall, 5 mg, median, read-out: tmax): 1 h; AUC(0-inf) [1, 2]: 9580 ng·h/mL; Cmax [1, 2]: 388 ng/mL; Tmax ([1]; both sexes, plasma, 5 mg, Part C, 5 mg, read-out: delay of median tmax in the fed state): 2 to 3 h; half-life ([1]; both sexes, plasma, 5 mg, Part C, elderly men and women, 5 mg, Fasting (N = 24), read-out: t1/2 (converted)): 894 min; half-life ([1]; both sexes, plasma, 5 mg, Part C, elderly men and women, 5 mg, Fed (N = 11), read-out: t1/2 (converted)): 948 min; AUC(0-inf) [1, 3]: 6310 ng·h/mL; AUC(0-t) [1, 3]: 5960 ng·h/mL; Cmax [1, 3]: 348 ng/mL; AUC(0-inf) ([1]; both sexes, plasma, 5 mg, Part C, elderly men and women, Fed (N = 11)): 5960 ng·h/mL; AUC(0-t) [1, 4]: 5560 ng·h/mL; Cmax [1, 4]: 269 ng/mL; Vd/F ([1]; both sexes, plasma, 10 mg, Part B, healthy elderly overall, 10 mg, arithmetic mean): 20.6 L; half-life ([1]; both sexes, plasma, 10 mg, Part B, healthy elderly overall, 10 mg, arithmetic mean, read-out: t1/2 (converted)): 1210 min; Tmax ([1]; both sexes, plasma, 10 mg, Part B, healthy elderly overall, 10 mg, median, read-out: tmax): 0.75 h; AUC(0-inf) [1, 5]: 14900 ng·h/mL; Cmax [1, 5]: 717 ng/mL; Tmax ([1]; both sexes, plasma, Parts A and B, each dose, post-dose, read-out: median tmax): 0.75 to 1.75 h; increase of exposure (AUC0-24 and Cmax) with dose ([1]; dose range 1 to 10 mg): approximate dose-proportional manner; Vd/F ([1]; female, plasma, 5 mg, Part B, healthy elderly women, 5 mg, arithmetic mean): 13.6 L; half-life ([1]; female, plasma, 5 mg, Part B, healthy elderly women, 5 mg, arithmetic mean, read-out: t1/2 (converted)): 1040 min; Tmax ([1]; female, plasma, 5 mg, Part B, healthy elderly women, 5 mg, median, read-out: tmax): 1 h; AUC(0-inf) [1, 6]: 9550 ng·h/mL; Cmax [1, 6]: 485 ng/mL; Vd/F ([1]; female, plasma, 10 mg, Part B, healthy elderly women, 10 mg, arithmetic mean): 19.6 L; half-life ([1]; female, plasma, 10 mg, Part B, healthy elderly women, 10 mg, arithmetic mean, read-out: t1/2 (converted)): 1130 min; Tmax ([1]; female, plasma, 10 mg, Part B, healthy elderly women, 10 mg, median, read-out: tmax): 0.75 h; AUC(0-inf) [1, 7]: 14100 ng·h/mL; Cmax [1, 7]: 781 ng/mL; differences in pharmacokinetic profile between healthy young and elderly subjects ([1]; in vivo): no apparent differences; AUC(0-inf) [1, 8]: 2660 ng·h/mL; Cmax [1, 8]: 82.7 ng/mL; Vd/F [1, 8]: 13.4 L; half-life ([1]; male, plasma, 1 mg, Part A, healthy young men, 1 mg single dose, mean (CV %), read-out: t1/2 (converted)): 1460 min; Tmax ([1]; male, plasma, 1 mg, Part A, healthy young men, 1 mg single dose, median (min, max), read-out: tmax): 1.25 h; AUC(0-inf) [1, 9]: 12600 ng·h/mL; Cmax [1, 9]: 423 ng/mL; Vd/F [1, 9]: 14.8 L; half-life ([1]; male, plasma, 5 mg, Part A, healthy young men, 5 mg single dose, mean (CV %), read-out: t1/2 (converted)): 1500 min; Tmax ([1]; male, plasma, 5 mg, Part A, healthy young men, 5 mg single dose, median (min, max), read-out: tmax): 1.75 h; Vd/F ([1]; male, plasma, 5 mg, Part B, healthy elderly men, 5 mg, arithmetic mean): 18 L; half-life ([1]; male, plasma, 5 mg, Part B, healthy elderly men, 5 mg, arithmetic mean, read-out: t1/2 (converted)): 1410 min; Tmax ([1]; male, plasma, 5 mg, Part B, healthy elderly men, 5 mg, median, read-out: tmax): 1 h; AUC(0-inf) [1, 10]: 9590 ng·h/mL; Cmax [1, 10]: 356 ng/mL; AUC(0-inf) [1, 11]: 18100 ng·h/mL; Cmax [1, 11]: 787 ng/mL; Vd/F [1, 11]: 15.3 L; half-life ([1]; male, plasma, 10 mg, Part A, healthy young men, 10 mg single dose, mean (CV %), read-out: t1/2 (converted)): 1160 min; Tmax ([1]; male, plasma, 10 mg, Part A, healthy young men, 10 mg single dose, median (min, max), read-out: tmax): 1 h; Vd/F ([1]; male, plasma, 10 mg, Part B, healthy elderly men, 10 mg, arithmetic mean): 21.6 L; half-life ([1]; male, plasma, 10 mg, Part B, healthy elderly men, 10 mg, arithmetic mean, read-out: t1/2 (converted)): 1300 min; Tmax ([1]; male, plasma, 10 mg, Part B, healthy elderly men, 10 mg, median, read-out: tmax): 0.75 h; AUC(0-inf) [1, 12]: 15700 ng·h/mL; Cmax [1, 12]: 652 ng/mL; locomotor activity (distance travelled and rearing counts) (Long Evans rats; 0.01-1 mg/kg oral, 90 min test session): dose related increase; timecourse of locomotor activity changes (Long Evans rats; 90 min session, all doses): peaked during the first 10 min timebin; dose at which magnitude of locomotor effect plateaued (Long Evans rats; oral, 90 min session): 0.06 to 0.1 mg/kg; effect size on locomotor activity compared with amphetamine (1 mg/kg IP) (Long Evans rats; same study): significantly less
